| SMILES | melting point [°C] |
| --- | --- |
| O=C(O)COc1cc2onc(-c3ccccc3F)c2cc1Br | 223 to 224 |
| C#CCOCc1nnc(Cl)c2ccccc12 | 131 to 132 |
| N#Cc1nc(Cl)c(-c2cccc(Cl)c2)nc1C#N | 87 to 88 |
| CCOC(=O)c1cnc2c3ccccc3ccn2c1=N | 197 to 199 |
| CCOC(=O)c1ccccc1NC(=O)c1oc2nn(C(C)C)c(C)c2c1C | 155 to 158 |
| COc1ccc2nc(-c3ccc(Cl)cc3)cn2c1 | 148 to 149 |
| Cc1ccc(N2CSC(=NCC(F)(F)F)N(Cc3ccc(C(F)(F)F)cc3)C2=O)cc1 | 62 to 63 |
| Cc1ccccc1-c1ccc(C(=O)N2Cc3ccc(C(=O)NCCc4ccc5c(c4)OCO5)n3Cc3ccccc32)cc1C | 154 to 157 |
| c1ccc2cc(N3CCN(Cc4n[nH]c5ccccc45)CC3)ncc2c1 | 214 to 215 |
| O=[N+]([O-])c1ccc2c(c1)OC(C1(CCCCCl)OCCO1)CO2 (stereo not drawn) | 74 to 76 |
| O=C(Nc1ccncc1)C1c2ccccc2CCc2ccccc21 | 148 to 149 |
| COc1ccc2c(-c3sccc3C)noc2c1Cl | 154 to 156 |
| O=C(N[C@H](Cc1ccc(C(F)(F)F)cc1)[C@@H](O)c1ccc(F)cc1)c1ccnc2ccccc12 (racemic) | 227 to 228 |
| CC(C)C1C(=O)C(C)(C)C(=O)N1c1ccc(C#N)c(Cl)c1 (stereo not drawn) | 116 to 117 |
| CCCONC(=O)c1cc(OC)cc(Oc2cccc(C(F)(F)F)c2)n1 | 75 to 77 |
| Cc1cnc(OCC(O)CNC(C)(C)C)c2cc(Cl)ccc12 (stereo not drawn) | 116 to 117 |
| CCOc1cccc(-c2c(C)c(=O)cc(-c3ccccc3)n2-c2ccccc2)c1 | 146 to 149 |
| CC1(CNC(=O)C(F)(F)F)CN(C(c2ccccc2)c2ccccc2)C1 | 127 to 128 |
| COc1ccc(C2CNCc3cc(C)ccc32)cc1OC (stereo not drawn) | 129 to 131 |
| O=C1CC(c2ccccc2)Cc2nccc(Cl)c21 (stereo not drawn) | 71 to 72 |
| C=CCc1c(O)ccc2ccc(=O)n(CC=C(C)C)c12 | 138 to 142 |
| CCOC(=O)c1n[nH]c(C)c1Cl | 106 to 107 |
| COc1ccc(-c2nc3c(F)cccc3s2)cc1OC | 129 |
| CCOC(=O)CC(=O)NC(=O)N1CC1C#N (stereo not drawn) | 121 to 123 |
| CCc1cc2c(s1)N(C)C(=O)C(OC(=O)Nc1cccc(C)c1)N=C2c1ccccc1Cl (stereo not drawn) | 181 to 182 |
| O=C(O)c1cccc(OC(F)(F)C(F)(F)F)c1 | 131 to 134 |
| Cc1ccccc1C=CC(=O)C=Cc1ccccc1C | 94 to 96 |

| SMILES | melting point [°C] |
| --- | --- |
| Cc1nc(Cl)c([N+](=O)[O-])c(Cl)n1 | 42 to 44 |
| CCOC(=O)C(CC(=O)O)(C(=O)OCC)n1cccc1 | 93 to 94 |
| O=c1[nH]c(=O)c2ccncc2[nH]1 | 365 |
| COC(=O)[C@H](Cc1cc(C)c(OCc2cccc3nc(-c4ccccc4)oc23)c(C)c1)NC(=O)OC(C)(C)C | 116 to 117 |
| OC1CCCc2nc3ccccc3c(NCCCC(c3ccccc3)c3ccccc3)c21 (stereo not drawn) | 147 to 148 |
| Cn1ccnc1Sc1ccc(Nc2c(C#N)cnc3cc(-c4ccc(N5CCSCC5)nc4)ccc23)cc1Cl | > 260 |
| Nc1nc2cc(Cl)c(Cl)cc2n1C1OC(CO)C(O)C1O (stereo not drawn) | 145 |
| O=C1c2ccccc2C(=O)N1CSc1nnnn1-c1ccccc1 | 146 to 147 |
| CCOC(=O)CSC(C)=NO | 90 to 92 |
| COc1ccc2c(ccc3c4ccc(OC)cc4c(=O)n(-c4ccc(OCCN5CCCCC5)cc4)c23)c1 | 176 |
| O=C1c2cccc3cccc(c23)C(=O)N1CCCCO | 105 to 108 |
| COCCOCCOC(=O)C#CC(=O)c1cc(OC)c(OC)c(OC)c1 | 33 to 34 |
| C[C@@H](NC(=O)c1cnn(-c2ccc(Cl)cc2)c1N)[C@](O)(Cn1cncn1)c1ccc(F)cc1F | 181 to 182 |
| CCNCC1Cc2cc(F)cc(-c3c(Cl)cccc3Cl)c2O1 (stereo not drawn) | 138 |
| O=C(NC(Cc1ccc(OCc2ccoc2)cc1)C(=O)O)c1cn2cc(-c3ccc(Cl)cc3)ccc2n1 (stereo not drawn) | 262 |
| O=C(c1cc2ccc(N3CCCCC3)cc2o1)C12CC3CC(CC(C3)C1)C2 | 150 to 152 |
| CCCCCCCSc1nn2c(=O)c(C)c(O)nc2s1 | 141 to 143 |
| O=c1ccc(-c2c(-c3ccccc3)nn3ccccc23)nn1[C@@H]1CCCC[C@@H]1O (relative stereo) | 195 to 197 |
| O=C(c1ccc(Br)cc1F)N1CCN(c2ccncc2)CC1 | 125 to 126 |
| CCCCCCCNC(=O)Nc1ccc(N2CCCCC2)cc1C(=O)NCC1CCN(C(c2ccccc2)c2ccccc2)CC1 | 166 to 168 |
| COc1ccc(C=O)c(Br)c1 | 73 to 74 |
| C=C1c2ccccc2CC(=NO)Cc2ccccc21 | 119 to 123 |
| CCOCc1nc(N)c2nccnc2n1 | 152 to 154 |
| N#Cc1nccn1Cc1cccs1 | 64 to 65 |
| CCCCCC(=O)C=Cc1ccc(O)c(O)c1 | 130 to 131 |
| O=c1cccccc1N1CCN(c2cccc(C(F)(F)F)c2)CC1 | 112 to 114 |

More lines, now with the values ahead:

| melting point [°C] | SMILES |
| --- | --- |
| 157 | COc1ccc(N2CCN(NC(=S)NCC(OC)OC)CC2)cc1 |
| 204 to 208 | O=C(O)COC1Cc2sc(S(=O)(=O)C(c3ccccc3F)c3ccccc3F)nc2-c2ccccc21 (stereo not drawn) |
| 148 to 150 | COc1cc(Cl)ccc1N=c1scc(-c2ccc(Cl)c(S(=O)(=O)N(C)C)c2)n1C |
| 198 | CC(C)(Oc1ccc(CC(=O)Nc2ccccc2)cc1)C(=O)O |
| 104 to 105 | O=C(O)CCCCC(=O)Oc1ccc([N+](=O)[O-])cc1 |
| 146 to 148 | CCc1c(CC(=O)NCCCCCCNC(=O)Cc2ccc([N+](=O)[O-])cc2)ccc(OC)c1OC |
| 102 | CC(=O)c1ccc(Oc2ccc(C(C)=O)cc2)cc1 |
| 167 to 168 | O=C(O)CCCc1ccc(N2CCOCC2)cc1 |
| 93 to 94 | CN(C(=O)COc1onc(C(F)(F)F)c1-c1ccccc1)c1ccccc1 |
| 271 to 273 | COc1ccc2c(c1)CC(n1cc[nH]c1=S)CC2 (stereo not drawn) |
| 81 to 84 | C[C@H]1CCCC(C)(C)[C@@H]1C(=O)c1ccco1 |
| 189 | CCOC(=O)NN=C(c1ccccc1)c1ccncc1 |
| 67 to 69 | CN(CCOc1ccccc1)[C@H]1CC[C@H](c2ccc(OCc3ccccc3)cc2)CC1 |
| 158 to 160 | CC(C)(C)OC(=O)NNC(=S)Nc1ccc(F)cc1 |
| 95 to 99 | CC(=O)Nc1ccc(OC(=O)C(CSSCC(NC(C)=O)C(=O)O)NC(C)=O)cc1 (stereo not drawn) |
| 141 to 143 | CCCCNC(=O)NCC1CCN(c2ncnc3cc(OC)c(OC)cc23)CC1 |
| 90 to 92 | Nc1sc2c(c1C(=O)c1ccc(F)cc1)CCN(C(=O)OCc1ccccc1)C2 |
| 165 to 167 | Oc1ccc(CCn2ccn(C3CCc4ccccc4C3)c2=S)cc1O (stereo not drawn) |
| 103 to 105 | CC1(C)Oc2ccc(C#N)cc2C(Oc2ccnnc2)C1(C)O (stereo not drawn) |
| 162 to 164 | c1ccc(CN2c3ccccc3-c3noc4c3C2CCC4)cc1 (stereo not drawn) |
| 177 to 178 | O=C(Nc1cccc(C(F)(F)F)c1)c1cccc2cc(OS(=O)(=O)C(F)(F)F)ccc12 |
| 140 to 146 | Nc1ccc(C23CC(C2)C(=O)N(CC2CCCCC2)C3=O)cc1 |
| 160 to 162 | CCc1cn(C2CC(O)C(CCCCc3ccccc3)O2)c(=O)[nH]c1=O (stereo not drawn) |
| 147 to 151 | COC1OC(COCc2ccccc2)C(OCc2ccccc2)C(NC(C)=O)C1OCc1ccccc1 (stereo not drawn) |
| 153 to 155 | CCCN(CCC)CC1CCCN(CCNC(=O)N2c3ccccc3C(=O)Nc3cccnc32)C1 (stereo not drawn) |

| melting point [°C] | SMILES |
| --- | --- |
| 126 to 128 | CN1C(=S)C(CCC(=O)O)c2ccccc21 (stereo not drawn) |
| 57 to 60 | CC(=O)C1(C(=O)N[C@H](C)c2ccccc2)CCC1 |
| 54 to 57 | CC(=O)CCCc1ccc(S(N)(=O)=O)s1 |
| 163 to 164 | COC(=O)C1C2CCC(C2)C1N(C)S(=O)(=O)c1ccc(O)cc1 (stereo not drawn) |
| 61 to 62 | CCOC(=O)c1c(-c2ccc(F)cc2)c2ccccc2n1C |
| 149 to 151 | Cc1c(C(=O)Nc2ccc(N3CCN(CCO)CC3)c(C#N)c2)cnn1-c1ccc(F)cc1F |
| 39 to 41 | OCCNc1ccc(C2CCCCC2)cc1 |
| 138 to 139 | COCC(C)Oc1cc(Oc2ccc(S(C)(=O)=O)nc2)cc2cc(C3=NCC(CCO)S3)[nH]c12 (stereo not drawn) |
| 234 to 235 | COCC(=O)N[C@H]1CC[C@H](Nc2nccc(-n3nnc4ccccc43)n2)CC1 |
| 52 to 53.5 | CC(=O)OCc1cc([N+](=O)[O-])ccc1C |
| 122 to 123 | COCC(=O)c1cnc2c(OC)cccc2c1Nc1ccccc1C |
| 176 to 177 | O=C(O)c1ccc([N+](=O)[O-])c(S(=O)(=O)CCO)c1 |
| 112 | CCc1ccc2[nH]c(C(=O)OC)cc2c1 |
| 100 to 105 | COc1ccccc1-c1ccc(Cl)c2c1S(=O)(=O)NC(C1CCCCC1)=N2 |
| 121 to 123 | Cc1c(-c2ccc(O)cc2)n(Cc2ccc(OCCN3CCCCC3C)cc2)c2ccc(O)cc12 (stereo not drawn) |
| 206 to 207 | CNc1ncc(S(=O)(=O)NC(=O)NC(C)C)c(Nc2cccc(C)c2)n1 |
| 60 to 62 | CCCC(=O)C(=CNc1ccccc1F)C(=O)OCC |
| 253 to 255 | CC(=O)NNC(=O)c1[nH]c2ccccc2c1Cl |
| 148 to 152 | CC(C)(C)C(=O)Oc1ccc(C(O)c2ccc(OC(=O)C(C)(C)C)cc2)cc1 |
| 124 to 125 | CCOC(=O)C1CN(C2CC2)c2nc(Sc3ccc(C)cc3)c(F)cc2C1=O (stereo not drawn) |
| 89 to 92 | CC[C@H](C)[C@@H](CO)NS(=O)(=O)c1ccc(Cl)c(N)c1 |
| 129 to 131 | CC(C)c1ccc(C2COc3cc(O)c(O)cc3C2)cc1 (stereo not drawn) |
| 85 to 87 | COc1ccc(Sc2ccc(CC(=O)O)cc2)cc1 |
| 291 to 292 | COc1ccc2cc(C(=O)O)sc(=O)c2c1 |
| 294 to 297 | CC(C)(C)c1ccccc1-n1c(=O)[nH]c2c(C(N)=O)nc(-c3cccc(O)c3)nc21 |

From a melting point compilation (Tetko et al.; mined from patent text by program, amines drawn as free bases though some values may be those of a salt)
